Results published in US20230048888A1, “USE OF TRIAZOLOTRIAZINE DERIVATIVE IN TREATMENT OF DISEASES” (ZHEJIANG VIMGREEN PHARMACEUTICALS, LTD., priority 2019, published 2023).
Where two headings read alike, the source gives them in different places.

Assay: Pharmacokinetics of acetate of Compound 22 in SD rats with single and repeated administration
Type: in vivo
Details: for clearance / Vd / AUC(0-t) / half-life / bioavailability / Cmax / C0 / Tmax: rat, plasma; for Tmax: read-out: Tmax (median)
Experimental: The formulation for Group 5 was prepared before administration on Day 1, and then, divided into daily doses and stored at 5±3° C. After taking out the formulations on the day of administration, the formulations should be let stand at room temperature for at least 30 minutes before administration.
After blood collection, the blood collection tube containing the anticoagulant was turned upside down several times to mix well, and placed on wet ice before centrifugation. Within 60 minutes after blood collection, the samples were centrifuged at 2000 g for 10 minutes at 2-8° C. to separate red blood cells, thereby obtaining plasma samples. The plasma samples were transferred to cryovials and stored at −75±15° C. until analysis.
Blood samples were collected from SD rats at room temperature before administration and within 24 hours after administration. All collected samples were placed on wet ice before centrifugation and stored at −75±15° C. until analysis.
The mass spectrometer was Applied Biosystems/AB Sciex Triple Quad 4500.
Pharmacokinetic data was calculated using the linear logarithmic trapezoidal method, with a weight of 1/(Y*Y). Samples with the sample concentration below the lower limit of quantification were excluded from the calculation of pharmacokinetic parameters. […] The mean time to peak (Tmax) was represented as a median.

## CC(=O)O.Nc1nc(NCCc2ccc(NC3COC3)cc2)nc2nc(-c3ccco3)nn12 [Acetate of Compound 22, 2-(furan-2-yl)-N5-(4-(oxetane-3-ylamino)phenethyl)-[1,2,4]triazolo[1,5-a][1,3,5]triazine-5,7-diamine acetate]
63 mg/kg daily for 7 consecutive days
  exposure ratio between Day 7 and Day 1: less than 2
Group 2 PO 21 mg/kg single, Female
  F: 70.8 ± 6.75%
Group 2 PO 21 mg/kg single, Male
  F: 82.2 ± 20.6%
Group 2 PO 21 mg/kg single, Overall
  F: 76.5 ± 15.1%
Group 3 PO 63 mg/kg single, Female
  F: 74.1 ± 21.9%
Group 3 PO 63 mg/kg single, Male
  F: 56.9 ± 1.98%
Group 3 PO 63 mg/kg single, Overall
  F: 65.5 ± 16.8%
Group 4 PO 189 mg/kg single, Female
  F: 44.9 ± 10.1%
Group 4 PO 189 mg/kg single, Male
  F: 50.9 ± 5.28%
Group 4 PO 189 mg/kg single, Overall
  F: 47.9 ± 7.91%
Group 5 PO 63 mg/kg repeated, Day 1, Female
  F: 77.0 ± 12.5%
Group 5 PO 63 mg/kg repeated, Day 1, Male
  F: 51.9 ± 20.5%
Group 5 PO 63 mg/kg repeated, Day 1, Overall
  F: 64.5 ± 20.5%
Sprague-Dawley (SD), intravenous injection 2.0 mg/kg, read-out: clearance rate (CL)
  clearance: 6.02 mL/min/kg
Sprague-Dawley (SD), intravenous injection 2.0 mg/kg, read-out: steady-state apparent volume of distribution (Vss)
  Vd: 0.457 L/kg
Sprague-Dawley (SD), iv, 2 mg/kg, intravenous injection 2.0 mg/kg, read-out: drug exposure AUC0-t
  AUC(0-t): 5.36 µg·h/mL
Sprague-Dawley (SD), iv, 2 mg/kg, intravenous injection 2.0 mg/kg, read-out: half-life T1/2 (converted)
  half-life: 3.39 h
Sprague-Dawley (SD), oral 21 mg/kg
  bioavailability: 76.5%
Sprague-Dawley (SD), oral 63 mg/kg
  bioavailability: 65.5%
Sprague-Dawley (SD), oral 189 mg/kg
  bioavailability: 47.9%
Sprague-Dawley (SD), oral, 63 mg/kg, 63 mg/kg daily for 7 consecutive days, Day 1, read-out: AUC0-t
  AUC(0-t): 111 µg·h/mL
Sprague-Dawley (SD), oral, 63 mg/kg, 63 mg/kg daily for 7 consecutive days, Day 7, read-out: AUC0-t
  AUC(0-t): 127 µg·h/mL
Sprague-Dawley (SD), po, 21 mg/kg, oral 21 mg/kg, read-out: drug exposure (AUC0-t)
  AUC(0-t): 42.8 µg·h/mL
Sprague-Dawley (SD), po, 21 mg/kg, oral 21 mg/kg, read-out: maximum plasma concentration (Cmax)
  Cmax: 18400 ng/mL
Sprague-Dawley (SD), po, 63 mg/kg, oral 63 mg/kg, read-out: drug exposure (AUC0-t)
  AUC(0-t): 112 µg·h/mL
Sprague-Dawley (SD), po, 63 mg/kg, oral 63 mg/kg, read-out: maximum plasma concentration (Cmax)
  Cmax: 27400 ng/mL
Sprague-Dawley (SD), po, 189 mg/kg, oral 189 mg/kg, read-out: drug exposure (AUC0-t)
  AUC(0-t): 241 µg·h/mL
Sprague-Dawley (SD), po, 189 mg/kg, oral 189 mg/kg, read-out: maximum plasma concentration (Cmax)
  Cmax: 51800 ng/mL
Sprague-Dawley, Group 1 IV 2.0 mg/kg single, Female
  C0: 8140 ± 820 ng/mL
Sprague-Dawley, Group 1 IV 2.0 mg/kg single, Female, read-out: CL
  clearance: 5.66 ± 0.166 mL/min/kg
Sprague-Dawley, Group 1 IV 2.0 mg/kg single, Female, read-out: Vss
  Vd: 0.465 ± 0.122 L/kg
Sprague-Dawley, Group 1 IV 2.0 mg/kg single, Male
  C0: 7060 ± 699 ng/mL
Sprague-Dawley, Group 1 IV 2.0 mg/kg single, Male, read-out: CL
  clearance: 6.56 mL/min/kg
Sprague-Dawley, Group 1 IV 2.0 mg/kg single, Male, read-out: Vss
  Vd: 0.445 L/kg
Both sexes, Sprague-Dawley, Group 1 IV 2.0 mg/kg single, Overall
  C0: 7600 ± 905 ng/mL
Both sexes, Sprague-Dawley, Group 1 IV 2.0 mg/kg single, Overall, read-out: CL
  clearance: 6.02 ± 0.668 mL/min/kg
Both sexes, Sprague-Dawley, Group 1 IV 2.0 mg/kg single, Overall, read-out: Vss
  Vd: 0.457 ± 0.088 L/kg
Both sexes, Sprague-Dawley, iv, 2 mg/kg, Group 1 IV 2.0 mg/kg single, Overall, read-out: AUC0-t
  AUC(0-t): 5.36 ± 0.664 µg·h/mL
Both sexes, Sprague-Dawley, iv, 2 mg/kg, Group 1 IV 2.0 mg/kg single, Overall, read-out: T1/2 (converted)
  half-life: 3.39 ± 2.9 h
Both sexes, Sprague-Dawley, po, 21 mg/kg, Group 2 PO 21 mg/kg single, Overall, read-out: AUC0-t
  AUC(0-t): 42.8 ± 7.21 µg·h/mL
Both sexes, Sprague-Dawley, po, 21 mg/kg, Group 2 PO 21 mg/kg single, Overall, read-out: Cmax
  Cmax: 18400 ± 4040 ng/mL
Both sexes, Sprague-Dawley, po, 21 mg/kg, Group 2 PO 21 mg/kg single, Overall, read-out: T1/2 (converted)
  half-life: 3.47 ± 0.596 h
Both sexes, Sprague-Dawley, po, 21 mg/kg, Group 2 PO 21 mg/kg single, Overall
  Tmax: 0.5 h
Both sexes, Sprague-Dawley, po, 63 mg/kg, Group 3 PO 63 mg/kg single, Overall, read-out: AUC0-t
  AUC(0-t): 112 ± 37.2 µg·h/mL
Both sexes, Sprague-Dawley, po, 63 mg/kg, Group 3 PO 63 mg/kg single, Overall, read-out: Cmax
  Cmax: 27400 ± 7200 ng/mL
Both sexes, Sprague-Dawley, po, 63 mg/kg, Group 3 PO 63 mg/kg single, Overall, read-out: T1/2 (converted)
  half-life: 3.01 ± 0.63 h
Both sexes, Sprague-Dawley, po, 63 mg/kg, Group 3 PO 63 mg/kg single, Overall
  Tmax: 1 h
Both sexes, Sprague-Dawley, po, 63 mg/kg, Group 5 PO 63 mg/kg repeated, Day 1, Overall, read-out: AUC0-t
  AUC(0-t): 111 ± 42.1 µg·h/mL
Both sexes, Sprague-Dawley, po, 63 mg/kg, Group 5 PO 63 mg/kg repeated, Day 1, Overall, read-out: Cmax
  Cmax: 28800 ± 11400 ng/mL
Both sexes, Sprague-Dawley, po, 63 mg/kg, Group 5 PO 63 mg/kg repeated, Day 1, Overall, read-out: T1/2 (converted)
  half-life: 3.33 ± 1.68 h
Both sexes, Sprague-Dawley, po, 63 mg/kg, Group 5 PO 63 mg/kg repeated, Day 1, Overall
  Tmax: 2 h
